Experimental data as given in patent US20250325677A1, “STAT6 DEGRADERS” (Gilead Sciences, Inc., priority 2024, published 2025).

Columns and labels:
eotaxin-3 release = assay: Human whole blood eotaxin-3 assay (IL-4 stimulated); assay type: cell-based; conditions: human whole blood, IL-4 0.4 nM, 48 hours; geometric mean; given for compounds with >80% Emax; read-out: Eotaxin-3 EC50
Outline: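 Human whole blood was preincubated with compound for 120 min at 37 °C, then stimulated with recombinant human IL-4 (E. coli) at 0.4 nM final for 48 h. Inhibition of eotaxin-3 release gave EC50 values.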

STAT6 = STAT6 (Homo sapiens (Human), UniProt P42226); assay: STAT6 degrader assay (HiBiT, HeLa LgBiT clone 4.14); assay type: cell-based; conditions: HeLa LgBiT clone 4.14, 4-24 h; geometric mean; given for compounds with >80% Emax; read-out: STAT6 degradation DC50
Outline: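 HeLa LgBiT clone 4.14 cells with HiBiT knocked into endogenous STAT6 were treated with compound for 4-24 h at 37° C. Luminescence after Nano-GLO substrate (0.5 h) measured remaining STAT6; 50 μM terfenadine wells defined 100% degradation, and DC50 (nM) was derived.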

STAT6, sequence (P42226 whole entry): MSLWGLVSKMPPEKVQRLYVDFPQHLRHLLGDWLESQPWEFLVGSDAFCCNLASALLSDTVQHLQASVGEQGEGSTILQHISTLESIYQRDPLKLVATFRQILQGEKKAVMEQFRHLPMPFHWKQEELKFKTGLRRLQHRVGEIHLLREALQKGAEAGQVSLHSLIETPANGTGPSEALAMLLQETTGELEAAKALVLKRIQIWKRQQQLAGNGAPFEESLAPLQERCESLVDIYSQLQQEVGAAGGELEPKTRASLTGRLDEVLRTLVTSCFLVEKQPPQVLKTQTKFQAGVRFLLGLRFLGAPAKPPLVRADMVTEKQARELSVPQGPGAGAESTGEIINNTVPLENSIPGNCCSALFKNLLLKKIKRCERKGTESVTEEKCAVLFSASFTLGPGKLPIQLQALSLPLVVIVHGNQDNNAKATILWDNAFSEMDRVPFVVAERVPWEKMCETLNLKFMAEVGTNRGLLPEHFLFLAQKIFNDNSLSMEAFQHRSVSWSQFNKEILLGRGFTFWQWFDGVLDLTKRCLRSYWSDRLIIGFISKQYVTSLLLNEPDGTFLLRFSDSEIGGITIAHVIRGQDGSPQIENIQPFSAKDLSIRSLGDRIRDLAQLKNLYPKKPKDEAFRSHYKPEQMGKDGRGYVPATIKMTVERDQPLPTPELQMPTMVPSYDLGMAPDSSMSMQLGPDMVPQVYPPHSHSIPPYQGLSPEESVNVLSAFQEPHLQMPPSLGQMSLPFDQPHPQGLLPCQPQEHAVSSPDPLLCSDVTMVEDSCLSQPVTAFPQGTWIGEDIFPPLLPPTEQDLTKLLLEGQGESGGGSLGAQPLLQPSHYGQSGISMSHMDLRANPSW

**Q.** How did the EC50 (eotaxin-3 release) turn out when CNc1ccc(-c2ccnc3c2cc([C@H](C)N2CC=C(c4c(C)cc(C(=O)N5CCC(CN6CCN(Cc7ccc8c(c7)C(C)(C)C(=O)N8C7CCC(=O)NC7=O)C[C@@H]6C)CC5)cc4F)CC2)n3C)cn1 (stereo partly drawn) [Example 3h18, 3-(5-(((S)-4-((1-(3-fluoro-5-methyl-4-(1-((S)-1-(1-methyl-4-(6-(methylamino)pyridin-3-yl)-1H-pyrrolo[2,3-b]pyridin-2-yl)ethyl)-1,2,3,6-tetrahydropyridin-4-yl)benzoyl)piperidin-4-yl)methyl)-3-methylpiperazin-1-yl)methyl)-3,3-dimethyl-2-oxoindolin-1-yl)piperidine-2,6-dione] was run?
**A.** 12.3 nM

**Q.** And the DC50 (STAT6)?
**A.** 6.3 nM

**Q.** What does the source list for C[C@H]1CN(Cc2ccc3c(c2)C2(CC2)C(=O)N3C2CCC(=O)NC2=O)CCN1CC1CCN(C(=O)c2cc(F)c(C3CCN(Cc4cc5c(-c6ccc(N)nc6)ccnc5n4C)CC3)c(F)c2)CC1 (stereo partly drawn) [Example 3h24, 3-(5′-(((S)-4-((1-(4-(1-((4-(6-aminopyridin-3-yl)-1-methyl-1H-pyrrolo[2,3-b]pyridin-2-yl)methyl)piperidin-4-yl)-3,5-difluorobenzoyl)piperidin-4-yl)methyl)-3-methylpiperazin-1-yl)methyl)-2′-oxospiro[cyclopropane-1,3′-indolin]-1′-yl)piperidine-2,6-dione]?
**A.** EC50 (eotaxin-3 release): 3.9 nM; DC50 (STAT6): 1.4 nM

**Q.** What does the source list for CNc1ccc(-c2ccnc3c2cc([C@H](C)N2CCC(c4ccc(C(=O)N5CCC(CN6CCN(Cc7ccc8c(c7)n(C7CC7)c(=O)n8C7CCC(=O)NC7=O)C[C@@H]6C)CC5)cc4)CC2)n3C)cn1 (stereo partly drawn) [Example 3h25, 3-(3-cyclopropyl-5-(((S)-3-methyl-4-((1-(4-(1-((S)-1-(1-methyl-4-(6-(methylamino)pyridin-3-yl)-1H-pyrrolo[2,3-b]pyridin-2-yl)ethyl)piperidin-4-yl)benzoyl)piperidin-4-yl)methyl)piperazin-1-yl)methyl)-2-oxo-2,3-dihydro-1H-benzo[d]imidazol-1-yl)piperidine-2,6-dione]?
**A.** EC50 (eotaxin-3 release): 3.4 nM; DC50 (STAT6): 1.9 nM

**Q.** C[C@H]1CN(Cc2ccc3c(c2)C(C)(C)C(=O)N3[C@H]2CCC(=O)NC2=O)CCN1CC1CCN(C(=O)c2ccc(C3CCN([C@@H](C)c4cc5c(-c6ccc(N)nc6)ccnc5n4C)CC3)cc2)CC1 [Example 3h31, (S)-3-(5-(((S)-4-((1-(4-(1-((S)-1-(4-(6-aminopyridin-3-yl)-1-methyl-1H-pyrrolo[2,3-b]pyridin-2-yl)ethyl)piperidin-4-yl)benzoyl)piperidin-4-yl)methyl)-3-methylpiperazin-1-yl)methyl)-3,3-dimethyl-2-oxoindolin-1-yl)piperidine-2,6-dione] was tested. Which EC50 (eotaxin-3 release) did it give?
**A.** 8 nM

**Q.** What about the DC50 (STAT6) of the same compound?
**A.** 2.5 nM

**Q.** How did the EC50 (eotaxin-3 release) turn out when C[C@H]1CN(Cc2ccc3c(c2)C(C)(C)C(=O)N3[C@@H]2CCC(=O)NC2=O)CCN1CC1CCN(C(=O)c2ccc(C3CCN([C@@H](C)c4cc5c(-c6ccc(N)nc6)ccnc5n4C)CC3)cc2)CC1 [Example 3h32, (R)-3-(5-(((S)-4-((1-(4-(1-((S)-1-(4-(6-aminopyridin-3-yl)-1-methyl-1H-pyrrolo[2,3-b]pyridin-2-yl)ethyl)piperidin-4-yl)benzoyl)piperidin-4-yl)methyl)-3-methylpiperazin-1-yl)methyl)-3,3-dimethyl-2-oxoindolin-1-yl)piperidine-2,6-dione] was run?
**A.** 22.4 nM

**Q.** And the DC50 (STAT6)?
**A.** 2.9 nM

**Q.** Which results are given for CNc1ccc(-c2ccnc3c2cc([C@H](C)N2CC=C(c4c(C)cc(C(=O)N5CCC(CN6CCN(Cc7cc8c(cc7F)N(C7CCC(=O)NC7=O)C(=O)C8(C)C)C[C@@H]6C)CC5)cc4F)CC2)n3C)cn1 (stereo partly drawn) [Example 3h33, 3-(6-fluoro-5-(((S)-4-((1-(3-fluoro-5-methyl-4-(1-((S)-1-(1-methyl-4-(6-(methylamino)pyridin-3-yl)-1H-pyrrolo[2,3-b]pyridin-2-yl)ethyl)-1,2,3,6-tetrahydropyridin-4-yl)benzoyl)piperidin-4-yl)methyl)-3-methylpiperazin-1-yl)methyl)-3,3-dimethyl-2-oxoindolin-1-yl)piperidine-2,6-dione]?
**A.** EC50 (eotaxin-3 release): 40.4 nM; DC50 (STAT6): 36.7 nM

**Q.** With CNc1ccc(-c2ccnc3c2cc([C@H](C)N2CC=C(c4c(C)cc(C(=O)N5CCC(CN6CCN(Cc7cc8c(cc7F)N(C7CCC(=O)NC7=O)C(=O)C87CC7)CC6)CC5)cc4F)CC2)n3C)cn1 (stereo partly drawn) [Example 3h34, 3-(6′-fluoro-5′-((4-((1-(3-fluoro-5-methyl-4-(1-((S)-1-(1-methyl-4-(6-(methylamino)pyridin-3-yl)-1H-pyrrolo[2,3-b]pyridin-2-yl)ethyl)-1,2,3,6-tetrahydropyridin-4-yl)benzoyl)piperidin-4-yl)methyl)piperazin-1-yl)methyl)-2′-oxospiro[cyclopropane-1,3′-indolin]-1′-yl)piperidine-2,6-dione] as the compound, how does the EC50 (eotaxin-3 release) read?
**A.** 8.5 nM

**Q.** And the DC50 (STAT6)?
**A.** 5.5 nM

**Q.** Which results are given for CNc1ccc(-c2ccnc3c2cc(CN2CCC(c4c(F)cc(C(=O)N5CCC(CN6CCN(Cc7ccc8c(c7)C7(CC7)C(=O)N8C7CCC(=O)NC7=O)C[C@@H]6C)CC5)cc4F)CC2)n3C)cn1 (stereo partly drawn) [Example 3h38, 3-(5′-(((S)-4-((1-(3,5-difluoro-4-(1-((1-methyl-4-(6-(methylamino)pyridin-3-yl)-1H-pyrrolo [2,3-b]pyridin-2-yl)methyl)piperidin-4-yl)benzoyl)piperidin-4-yl)methyl)-3-methylpiperazin-1-yl)methyl)-2′-oxospiro[cyclopropane-1,3′-indolin]-1′-yl)piperidine-2,6-dione]?
**A.** EC50 (eotaxin-3 release): 7.1 nM; DC50 (STAT6): 1.7 nM

**Q.** With CNc1ccc(-c2ccnc3c2cc([C@H](C)N2CC=C(c4c(C)cc(C(=O)N5CCC(CN6CCN(Cc7ccc8c(c7)C7(CCC7)C(=O)N8C7CCC(=O)NC7=O)C[C@@H]6C)CC5)cc4F)CC2)n3C)cn1 (stereo partly drawn) [Example 3h47, 3-(5′-(((S)-4-((1-(3-fluoro-5-methyl-4-(1-((S)-1-(1-methyl-4-(6-(methylamino)pyridin-3-yl)-1H-pyrrolo[2,3-b]pyridin-2-yl)ethyl)-1,2,3,6-tetrahydropyridin-4-yl)benzoyl)piperidin-4-yl)methyl)-3-methylpiperazin-1-yl)methyl)-2′-oxospiro[cyclobutane-1,3′-indolin]-1′-yl)piperidine-2,6-dione] as the compound, how does the EC50 (eotaxin-3 release) read?
**A.** 8.8 nM

**Q.** What about the DC50 (STAT6) of the same compound?
**A.** 7 nM

**Q.** C[C@H]1CN(Cc2ccc3c(c2)C2(CCC2)C(=O)N3C2CCC(=O)NC2=O)CCN1CC1CCN(C(=O)c2ccc(C3CCN([C@@H](C)c4cc5c(-c6ccc(N)nc6)ccnc5n4C)CC3)cc2)CC1 (stereo partly drawn) [Example 3h48, 3-(5′-(((S)-4-((1-(4-(1-((S)-1-(4-(6-aminopyridin-3-yl)-1-methyl-1H-pyrrolo[2,3-b]pyridin-2-yl)ethyl)piperidin-4-yl)benzoyl)piperidin-4-yl)methyl)-3-methylpiperazin-1-yl)methyl)-2′-oxospiro-[cyclobutane-1,3′-indolin]-1′-yl)piperidine-2,6-dione] was tested. Which EC50 (eotaxin-3 release) did it give?
**A.** 13.2 nM

**Q.** What about the DC50 (STAT6) of the same compound?
**A.** 3 nM

**Q.** For C[C@@H](c1cc2c(-c3ccc(N)nc3)ccnc2n1C)N1CCC(c2ccc(C(=O)N3CCC(CN4CCN(Cc5ccc6c(c5)oc(=O)n6C5CCC(=O)NC5=O)CC4)CC3)cc2)CC1 (stereo partly drawn) [Example 3n5, 3-(6-((4-((1-(4-(1-((S)-1-(4-(6-aminopyridin-3-yl)-1-methyl-1H-pyrrolo[2,3-b]pyridin-2-yl)ethyl)-piperidin-4-yl)benzoyl)piperidin-4-yl)methyl)piperazin-1-yl)methyl)-2-oxobenzo[d]oxazol-3 (2H)-yl)piperidine-2,6-dione], which EC50 (eotaxin-3 release) is on record?
**A.** 6 nM

**Q.** What about the DC50 (STAT6) of the same compound?
**A.** 2.7 nM

**Q.** How did the EC50 (eotaxin-3 release) turn out when C[C@H]1CN(Cc2ccc3c(c2)oc(=O)n3C2CCC(=O)NC2=O)CCN1CC1CCN(C(=O)c2ccc(C3CCN([C@@H](C)c4cc5c(-c6ccc(N)nc6)ccnc5n4C)CC3)cc2)CC1 (stereo partly drawn) [Example 3n6, 3-(6-(((S)-4-((1-(4-(1-((S)-1-(4-(6-aminopyridin-3-yl)-1-methyl-1H-pyrrolo[2,3-b]pyridin-2-yl)ethyl)piperidin-4-yl)benzoyl)piperidin-4-yl)methyl)-3-methylpiperazin-1-yl)methyl)-2-oxobenzo[d]oxazol-3 (2H)-yl)piperidine-2,6-dione] was run?
**A.** 4 nM

**Q.** What about the DC50 (STAT6) of the same compound?
**A.** 0.7 nM

**Q.** Which results are given for CN(C(=O)c1ccc(C2CCN(Cc3cc4c(-c5ccc(N)nc5)ccnc4n3C)CC2)cc1)c1ccc(C2CCN(Cc3ccc4c(c3)n(C)c(=O)n4C3CCC(=O)NC3=O)CC2(F)F)cc1 (stereo not shown) [Example 3p2, 4-(1-((4-(6-aminopyridin-3-yl)-1-methyl-1H-pyrrolo[2,3-b]pyridin-2-yl)methyl)piperidin-4-yl)-N-(4-(1-((1-(2,6-dioxopiperidin-3-yl)-3-methyl-2-oxo-2,3-dihydro-1H-benzo[d]imidazol-5-yl)methyl)-3,3-difluoropiperidin-4-yl)phenyl)-N-methylbenzamide]?
**A.** EC50 (eotaxin-3 release): 17 nM; DC50 (STAT6): 0.8 nM

**Q.** Which results are given for C[C@H]1CN(Cc2ccc3c(c2)C(C)(C)C(=O)N3C2CCC(=O)NC2=O)CCN1CC1CCN(C(=O)c2ccc(C3CCN([C@@H](C)c4cc5c(-c6ccc(N)nc6)ccnc5n4C)CC3)cc2)CC1 (stereo partly drawn) [Example 3r2, 3-(5-(((S)-4-((1-(4-(1-((S)-1-(4-(6-aminopyridin-3-yl)-1-methyl-1H-pyrrolo[2,3-b]pyridin-2-yl)ethyl)piperidin-4-yl)benzoyl)piperidin-4-yl)methyl)-3-methylpiperazin-1-yl)methyl)-3,3-dimethyl-2-oxoindolin-1-yl)piperidine-2,6-dione]?
**A.** EC50 (eotaxin-3 release): 14.7 nM; DC50 (STAT6): 4.1 nM
